Experiments:
[1] = biological target: T1, Serine/threonine-protein kinase 36 (Homo sapiens) (UniProt Q9NRP7); assay: Selectivity interaction (KinomeScan (DiscoverX)) EUB0000045b STK36
T1 sequence (whole entry): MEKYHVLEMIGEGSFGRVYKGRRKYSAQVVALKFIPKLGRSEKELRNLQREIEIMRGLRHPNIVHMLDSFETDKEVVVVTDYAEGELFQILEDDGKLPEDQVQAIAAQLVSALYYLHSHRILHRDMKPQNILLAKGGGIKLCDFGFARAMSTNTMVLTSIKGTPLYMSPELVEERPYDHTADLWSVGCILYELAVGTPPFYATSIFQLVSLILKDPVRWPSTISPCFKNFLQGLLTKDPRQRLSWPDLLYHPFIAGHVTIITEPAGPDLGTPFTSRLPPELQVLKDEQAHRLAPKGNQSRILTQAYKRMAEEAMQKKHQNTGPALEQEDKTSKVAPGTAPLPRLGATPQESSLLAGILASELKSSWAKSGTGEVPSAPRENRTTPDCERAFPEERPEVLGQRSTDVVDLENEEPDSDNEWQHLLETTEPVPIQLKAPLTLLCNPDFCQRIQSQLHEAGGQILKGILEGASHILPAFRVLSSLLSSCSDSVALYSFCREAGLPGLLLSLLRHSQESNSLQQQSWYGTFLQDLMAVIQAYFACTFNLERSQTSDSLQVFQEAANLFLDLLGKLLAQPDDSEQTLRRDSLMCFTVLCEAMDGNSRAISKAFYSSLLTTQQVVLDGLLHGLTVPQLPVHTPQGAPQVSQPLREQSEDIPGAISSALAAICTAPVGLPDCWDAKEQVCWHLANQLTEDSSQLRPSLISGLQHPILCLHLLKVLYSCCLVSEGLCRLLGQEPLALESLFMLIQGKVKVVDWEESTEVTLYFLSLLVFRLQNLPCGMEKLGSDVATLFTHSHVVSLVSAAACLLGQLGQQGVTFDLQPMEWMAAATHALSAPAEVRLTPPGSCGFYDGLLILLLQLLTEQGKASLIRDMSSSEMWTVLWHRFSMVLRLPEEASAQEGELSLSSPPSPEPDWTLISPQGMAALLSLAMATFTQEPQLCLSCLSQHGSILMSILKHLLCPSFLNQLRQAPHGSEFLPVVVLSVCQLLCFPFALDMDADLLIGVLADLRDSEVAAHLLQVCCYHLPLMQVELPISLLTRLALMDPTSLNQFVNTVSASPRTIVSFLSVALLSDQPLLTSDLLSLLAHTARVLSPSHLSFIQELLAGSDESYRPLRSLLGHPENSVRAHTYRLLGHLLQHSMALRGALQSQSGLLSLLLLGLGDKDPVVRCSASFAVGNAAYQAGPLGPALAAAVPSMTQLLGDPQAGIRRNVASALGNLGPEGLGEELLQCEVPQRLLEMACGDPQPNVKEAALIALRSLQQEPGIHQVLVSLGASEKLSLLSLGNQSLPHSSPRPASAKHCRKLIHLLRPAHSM

[2] = biological target: Hepatocyte growth factor-like protein (Homo sapiens) (UniProt P26927); assay: Selectivity interaction (KinomeScan (DiscoverX)) EUB0000666a MST1; details: at 10 µM
[3] = biological target: Calcium/calmodulin-dependent protein kinase type 1D (Homo sapiens) (UniProt Q8IU85); assay: Selectivity interaction (KinomeScan (DiscoverX)) EUB0001049a CAMK1D; details: at 1 µM
Calcium/calmodulin-dependent protein kinase type 1D (Homo sapiens), sequence (Q8IU85 whole entry, looked up): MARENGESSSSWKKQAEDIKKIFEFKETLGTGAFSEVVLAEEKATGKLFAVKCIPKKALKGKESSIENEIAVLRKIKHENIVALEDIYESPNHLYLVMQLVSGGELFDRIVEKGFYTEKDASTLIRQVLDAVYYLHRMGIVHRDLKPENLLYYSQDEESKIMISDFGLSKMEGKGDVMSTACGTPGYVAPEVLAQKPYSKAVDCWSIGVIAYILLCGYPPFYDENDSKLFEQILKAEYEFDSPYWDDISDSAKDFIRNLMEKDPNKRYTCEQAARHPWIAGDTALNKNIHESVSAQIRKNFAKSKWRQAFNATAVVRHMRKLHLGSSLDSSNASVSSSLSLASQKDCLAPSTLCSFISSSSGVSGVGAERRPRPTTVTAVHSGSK

[4] = biological target: Tyrosine-protein kinase Fes/Fps (Homo sapiens) (UniProt P07332); assay: Selectivity interaction (KinomeScan (DiscoverX)) EUB0001619a FES; details: at 1 µM
Tyrosine-protein kinase Fes/Fps (Homo sapiens), sequence (P07332 whole entry): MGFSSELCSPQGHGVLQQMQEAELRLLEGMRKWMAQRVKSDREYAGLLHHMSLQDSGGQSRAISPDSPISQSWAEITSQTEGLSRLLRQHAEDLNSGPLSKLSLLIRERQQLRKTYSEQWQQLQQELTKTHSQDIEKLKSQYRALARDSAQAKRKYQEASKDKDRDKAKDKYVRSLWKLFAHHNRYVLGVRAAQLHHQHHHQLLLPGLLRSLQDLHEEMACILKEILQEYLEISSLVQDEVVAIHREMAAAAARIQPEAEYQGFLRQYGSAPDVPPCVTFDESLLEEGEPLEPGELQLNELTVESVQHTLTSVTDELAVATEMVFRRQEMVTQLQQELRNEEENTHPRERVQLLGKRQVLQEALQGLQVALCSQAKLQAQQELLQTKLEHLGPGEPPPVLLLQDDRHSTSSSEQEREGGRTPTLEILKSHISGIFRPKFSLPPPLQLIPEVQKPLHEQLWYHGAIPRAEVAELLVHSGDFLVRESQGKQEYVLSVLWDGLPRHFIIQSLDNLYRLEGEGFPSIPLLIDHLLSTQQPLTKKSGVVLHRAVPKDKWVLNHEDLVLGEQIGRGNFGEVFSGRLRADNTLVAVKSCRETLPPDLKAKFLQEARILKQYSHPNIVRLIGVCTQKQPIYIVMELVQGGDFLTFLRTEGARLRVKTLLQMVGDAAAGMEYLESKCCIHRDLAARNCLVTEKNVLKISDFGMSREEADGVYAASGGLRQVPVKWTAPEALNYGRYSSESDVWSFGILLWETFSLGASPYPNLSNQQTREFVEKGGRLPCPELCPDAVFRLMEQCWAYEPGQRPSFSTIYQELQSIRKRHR

Misshapen-like kinase 1 = Misshapen-like kinase 1 (Homo sapiens, UniProt Q8N4C8); assay: Selectivity interaction (ActivX KiNativ screen (ex vivo kinase selectivity in human PBMCs)) EUB0001619a MINK1; type: cell-based; details: PBMC, at 1 µM
Misshapen-like kinase 1, sequence (Q8N4C8 whole entry, looked up): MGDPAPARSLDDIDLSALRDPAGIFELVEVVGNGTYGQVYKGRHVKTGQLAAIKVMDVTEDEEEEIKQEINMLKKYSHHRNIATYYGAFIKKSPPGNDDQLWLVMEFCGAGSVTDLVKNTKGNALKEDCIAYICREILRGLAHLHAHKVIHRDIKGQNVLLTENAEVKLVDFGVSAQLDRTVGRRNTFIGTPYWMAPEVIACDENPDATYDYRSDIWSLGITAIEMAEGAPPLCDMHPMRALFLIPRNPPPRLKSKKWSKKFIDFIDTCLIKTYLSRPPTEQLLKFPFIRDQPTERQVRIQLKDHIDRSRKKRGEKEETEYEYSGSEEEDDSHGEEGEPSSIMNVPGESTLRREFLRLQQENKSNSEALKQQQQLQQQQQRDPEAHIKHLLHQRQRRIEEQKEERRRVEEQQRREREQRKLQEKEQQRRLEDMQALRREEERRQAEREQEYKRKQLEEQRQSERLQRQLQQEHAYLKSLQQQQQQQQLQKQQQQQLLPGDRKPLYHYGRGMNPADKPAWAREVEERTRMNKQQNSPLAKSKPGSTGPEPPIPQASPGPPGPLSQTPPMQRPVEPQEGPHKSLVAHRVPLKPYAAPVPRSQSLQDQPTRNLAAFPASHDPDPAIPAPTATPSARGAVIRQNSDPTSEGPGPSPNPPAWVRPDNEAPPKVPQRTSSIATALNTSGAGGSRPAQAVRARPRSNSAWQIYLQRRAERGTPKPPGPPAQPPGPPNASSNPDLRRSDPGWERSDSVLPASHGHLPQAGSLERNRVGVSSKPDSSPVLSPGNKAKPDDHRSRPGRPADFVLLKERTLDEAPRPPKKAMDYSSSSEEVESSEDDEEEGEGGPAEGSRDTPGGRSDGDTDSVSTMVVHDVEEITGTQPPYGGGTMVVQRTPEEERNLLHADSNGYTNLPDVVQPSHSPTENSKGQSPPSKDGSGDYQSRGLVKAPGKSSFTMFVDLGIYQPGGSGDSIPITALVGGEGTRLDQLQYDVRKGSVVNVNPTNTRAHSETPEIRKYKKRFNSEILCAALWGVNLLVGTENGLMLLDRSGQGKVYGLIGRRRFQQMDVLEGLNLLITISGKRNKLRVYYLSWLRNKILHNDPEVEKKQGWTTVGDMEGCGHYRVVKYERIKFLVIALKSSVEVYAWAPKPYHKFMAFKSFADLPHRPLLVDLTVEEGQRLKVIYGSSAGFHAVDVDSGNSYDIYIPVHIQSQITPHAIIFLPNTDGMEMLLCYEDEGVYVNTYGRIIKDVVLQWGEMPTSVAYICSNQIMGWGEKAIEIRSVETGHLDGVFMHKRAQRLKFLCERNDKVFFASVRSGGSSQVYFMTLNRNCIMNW

[5] = biological target: Tyrosine-protein kinase Lyn (Homo sapiens, UniProt P07948); assay: Selectivity interaction (SelectScreen profiling (Invitrogen)) EUB0000607a LYN; details: at 2 µM
Tyrosine-protein kinase Lyn, sequence (P07948 2-512 limits assumed): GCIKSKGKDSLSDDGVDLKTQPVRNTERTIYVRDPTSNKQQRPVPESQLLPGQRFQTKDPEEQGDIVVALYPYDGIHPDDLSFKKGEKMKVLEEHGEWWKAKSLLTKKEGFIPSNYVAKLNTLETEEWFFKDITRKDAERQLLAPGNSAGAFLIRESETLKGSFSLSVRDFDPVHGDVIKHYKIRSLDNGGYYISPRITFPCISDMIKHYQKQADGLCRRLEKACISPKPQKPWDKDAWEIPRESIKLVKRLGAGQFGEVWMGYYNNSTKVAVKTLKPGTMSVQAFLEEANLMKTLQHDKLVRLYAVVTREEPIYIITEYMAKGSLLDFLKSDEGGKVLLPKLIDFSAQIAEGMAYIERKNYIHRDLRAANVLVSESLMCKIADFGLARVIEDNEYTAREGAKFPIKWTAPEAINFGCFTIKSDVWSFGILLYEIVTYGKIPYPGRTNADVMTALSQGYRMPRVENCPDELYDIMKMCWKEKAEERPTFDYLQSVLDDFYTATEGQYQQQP

[6] = biological target: SRSF protein kinase 2 (Homo sapiens) (UniProt P78362); assay: Selectivity interaction (ActivX KiNativ screen (kinase selectivity in THP-1 cell lysates)) EUB0000639a SRPK2; type: subcellular; details: lysate
SRSF protein kinase 2 (Homo sapiens), sequence (P78362 whole entry, looked up): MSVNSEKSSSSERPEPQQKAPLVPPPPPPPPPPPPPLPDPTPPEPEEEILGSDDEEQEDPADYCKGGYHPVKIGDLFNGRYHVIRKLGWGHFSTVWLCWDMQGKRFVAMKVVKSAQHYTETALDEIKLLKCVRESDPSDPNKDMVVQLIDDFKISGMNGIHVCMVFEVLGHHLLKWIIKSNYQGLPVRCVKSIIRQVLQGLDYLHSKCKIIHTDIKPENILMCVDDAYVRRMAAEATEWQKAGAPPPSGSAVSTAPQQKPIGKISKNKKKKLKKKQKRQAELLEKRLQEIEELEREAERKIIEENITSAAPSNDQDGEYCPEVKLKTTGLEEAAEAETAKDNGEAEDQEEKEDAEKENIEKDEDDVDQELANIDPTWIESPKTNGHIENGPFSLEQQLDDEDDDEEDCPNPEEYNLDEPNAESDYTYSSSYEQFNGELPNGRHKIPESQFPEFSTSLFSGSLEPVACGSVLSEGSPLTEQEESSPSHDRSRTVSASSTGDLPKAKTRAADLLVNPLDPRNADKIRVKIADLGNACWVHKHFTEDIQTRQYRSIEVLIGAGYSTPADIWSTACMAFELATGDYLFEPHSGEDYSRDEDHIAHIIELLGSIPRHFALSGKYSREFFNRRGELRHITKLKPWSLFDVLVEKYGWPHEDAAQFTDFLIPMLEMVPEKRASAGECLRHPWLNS

[7] = biological target: CDK9/cyclin T1 (Homo sapiens) (UniProt O60563+P50750); assay: Selectivity interaction (Kinase panel (Invitrogen)) EUB0000639a CDK9; type: protein-complex assay; details: at 200 nM
[8] = biological target: Tyrosine-protein kinase receptor UFO (Homo sapiens) (UniProt P30530); assay: Selectivity interaction (KinomeScan (DiscoverX)) EUB0000655a AXL; details: at 10 µM
[9] = biological target: Serine/threonine-protein kinase SIK3 (Homo sapiens) (UniProt Q9Y2K2); assay: Selectivity interaction (KinomeScan (DiscoverX)) EUB0000655a SIK3; details: at 10 µM
Serine/threonine-protein kinase SIK3 (Homo sapiens), sequence (Q9Y2K2 whole entry, looked up): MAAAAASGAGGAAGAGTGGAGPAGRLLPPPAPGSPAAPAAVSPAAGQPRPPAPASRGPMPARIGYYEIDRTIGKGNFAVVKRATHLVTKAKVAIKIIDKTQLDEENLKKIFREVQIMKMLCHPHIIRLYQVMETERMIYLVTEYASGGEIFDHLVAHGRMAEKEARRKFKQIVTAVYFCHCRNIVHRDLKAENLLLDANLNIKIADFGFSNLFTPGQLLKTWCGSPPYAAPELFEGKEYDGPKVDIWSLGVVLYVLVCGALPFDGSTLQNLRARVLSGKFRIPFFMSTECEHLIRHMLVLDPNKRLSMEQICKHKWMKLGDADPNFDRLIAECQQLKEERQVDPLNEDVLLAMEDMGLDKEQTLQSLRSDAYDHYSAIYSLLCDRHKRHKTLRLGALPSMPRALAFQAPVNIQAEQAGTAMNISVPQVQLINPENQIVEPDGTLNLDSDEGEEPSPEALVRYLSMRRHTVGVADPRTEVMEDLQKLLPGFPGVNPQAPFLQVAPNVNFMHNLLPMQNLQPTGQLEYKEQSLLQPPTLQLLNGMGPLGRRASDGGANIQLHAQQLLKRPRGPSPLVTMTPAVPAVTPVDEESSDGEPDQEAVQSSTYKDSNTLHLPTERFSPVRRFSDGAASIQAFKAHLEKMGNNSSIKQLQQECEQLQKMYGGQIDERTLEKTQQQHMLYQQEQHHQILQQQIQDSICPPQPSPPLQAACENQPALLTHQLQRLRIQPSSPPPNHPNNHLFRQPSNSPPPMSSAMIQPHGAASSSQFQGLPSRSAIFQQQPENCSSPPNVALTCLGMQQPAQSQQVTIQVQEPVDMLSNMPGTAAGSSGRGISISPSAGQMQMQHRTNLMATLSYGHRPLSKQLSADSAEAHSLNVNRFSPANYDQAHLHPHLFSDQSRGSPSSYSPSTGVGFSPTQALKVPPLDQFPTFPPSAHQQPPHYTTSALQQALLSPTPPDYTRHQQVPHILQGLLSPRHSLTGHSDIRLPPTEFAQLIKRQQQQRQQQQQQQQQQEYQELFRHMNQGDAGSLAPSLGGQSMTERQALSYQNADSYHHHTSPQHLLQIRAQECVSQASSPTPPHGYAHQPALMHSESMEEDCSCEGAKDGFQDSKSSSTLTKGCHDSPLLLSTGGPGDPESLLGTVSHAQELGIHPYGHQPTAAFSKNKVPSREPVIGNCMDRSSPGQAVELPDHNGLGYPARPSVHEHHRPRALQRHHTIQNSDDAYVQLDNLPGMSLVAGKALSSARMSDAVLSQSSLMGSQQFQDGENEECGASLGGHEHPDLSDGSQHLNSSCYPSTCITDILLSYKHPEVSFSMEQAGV

[10] = biological target: T2, Serine/threonine-protein kinase TAO3 (Homo sapiens) (UniProt Q9H2K8); assay: Selectivity interaction (KinomeScan (DiscoverX)) EUB0000092b TAOK3; details: at 10 µM
T2 sequence (whole entry): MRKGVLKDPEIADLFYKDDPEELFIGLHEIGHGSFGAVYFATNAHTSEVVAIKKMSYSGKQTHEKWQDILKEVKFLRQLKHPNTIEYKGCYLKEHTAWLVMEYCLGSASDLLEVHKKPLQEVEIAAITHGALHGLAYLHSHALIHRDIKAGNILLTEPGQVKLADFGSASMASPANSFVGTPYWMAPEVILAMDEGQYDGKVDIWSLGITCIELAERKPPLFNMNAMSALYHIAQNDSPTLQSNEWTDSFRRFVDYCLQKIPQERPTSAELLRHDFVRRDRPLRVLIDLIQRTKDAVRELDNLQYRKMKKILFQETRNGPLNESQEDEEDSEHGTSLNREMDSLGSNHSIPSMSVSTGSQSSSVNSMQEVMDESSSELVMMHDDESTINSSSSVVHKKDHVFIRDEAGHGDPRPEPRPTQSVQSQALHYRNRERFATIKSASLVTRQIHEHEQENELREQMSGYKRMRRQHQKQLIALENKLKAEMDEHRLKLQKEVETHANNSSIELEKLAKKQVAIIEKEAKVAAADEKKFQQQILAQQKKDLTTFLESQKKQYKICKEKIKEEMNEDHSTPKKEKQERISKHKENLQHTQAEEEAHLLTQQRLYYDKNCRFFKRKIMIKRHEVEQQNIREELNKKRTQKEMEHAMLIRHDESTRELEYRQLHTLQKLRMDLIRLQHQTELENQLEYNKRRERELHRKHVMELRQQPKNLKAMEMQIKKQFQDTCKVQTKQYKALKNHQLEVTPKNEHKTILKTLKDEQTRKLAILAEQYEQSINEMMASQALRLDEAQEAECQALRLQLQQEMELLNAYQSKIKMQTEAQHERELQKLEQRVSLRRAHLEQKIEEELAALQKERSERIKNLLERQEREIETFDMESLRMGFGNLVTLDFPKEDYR

Q: With `C=CC(=O)Nc1cc(-n2c(=O)ccc3cnc4ccc(-c5ccc(NS(C)(=O)=O)cc5)cc4c32)ccc1C` as the compound, how does the % of control ([1]; at 1 µM) read?
A: 100%

Q: What about the % of control ([1]; at 10 µM) of the same compound?
A: 100%

Q: `O=C(NOC[C@H](O)CO)c1ccc(F)c(F)c1Nc1ccc(I)cc1F` was tested. Which % of control [2] did it give?
A: 100%

Q: With `COc1cc(Nc2nc(C)cc(-c3cnn4nc(OC)ccc34)n2)cc(C(F)(F)F)c1` as the compound, how does the % of control [3] read?
A: 84%

Q: `N#Cc1cccc(-c2c[nH]c3ncnc(N4CCOCC4)c23)c1` was tested. Which % of control [4] did it give?
A: 100%

Q: And the % of inhibition (Misshapen-like kinase 1)?
A: 15%

Q: `CNC(=O)Nc1ccc(-c2nc(N3CC4CCC(C3)O4)c3cnn(C4CCC5(CC4)OCCO5)c3n2)cc1` was tested. Which % of inhibition [5] did it give?
A: 5%

Q: `CC[C@@H]1[C@H](F)C(=O)N[C@@H]1COc1nccc2cc(C(N)=O)c(OC)cc12` [ZIMLOVISERTIB] was tested. Which % of inhibition ([6]; at 0.01 µM) did it give?
A: 6.9%

Q: And the % of inhibition ([6]; at 0.04 µM)?
A: -23%

Q: And the % of inhibition ([6]; at 0.2 µM)?
A: -5.5%

Q: And the % of inhibition ([6]; at 1 µM)?
A: 11.7%

Q: And the % of inhibition ([6]; at 5 µM)?
A: 19.9%

Q: And the % of inhibition [7]?
A: 3.66%

Q: Which % of control [8] does the source give for `CN(C)CCOc1ccc(-c2nc(-c3ccncc3)c(-c3ccc4c(c3)CC/C4=N\O)[nH]2)cc1` here?
A: 78%

Q: What about the % of control [9] of the same compound?
A: 100%

Q: Which % of control [10] does the source give for `CCC(=O)N1CCN(c2ccc(-n3c(=O)ccc4cnc5ccc(-c6cnc7ccccc7c6)cc5c43)cc2C(F)(F)F)CC1` here?
A: 76%
